Here are results for two sequences from US20260265771A1, “METHODS OF INCREASING THE REGENERATION EFFICIENCY IN PLANTS” (Institute of Genetics and Developmental Biology Chinese …, priority 2022, published 2026).

Entries after “also recorded” stand apart in the source; their conditions may differ.

Assay [1] has as its system young embryos of B104 and Chang 7-2. Description: Shoot regeneration of maize young embryos. The class given is cell-based. The procedure: Young embryos of B104 and Chang 7-2 were treated with 0, 0.1 or 1 nM of ZmREF1. For both B-104 and Chan 7-2 shoot regeneration frequency was increased when ZmREF1 was applied, for B-104 this was greatest at 1 nM, however, for Chan 7-2 this was greatest at 0.1 nM, as shown in FIG. 52.

The test system of another assay is sunflower explants. The assay can be described thus: Shoot regeneration of sunflower cotyledon explants. The class given is cell-based. The procedure: (A) The shoot regenerative capacity was represented by the relative frequency of explants with the regenerated shoots. (B) The shoot regenerative capacity was represented by the number of explants with different number of regenerated shoots. Bars show mean±SD. ***P<0.001, **P<0.01, *P<0.05 (Student's t-test). (C) photos of sunflower plants grown in the presence of 1 nM HaREF1, 10 nM HaREF1 or absence of HaREF1 (mock).
The sunflower SIPEP (REF1) orthologue (HanREF1) was investigated to establish its effect on sunflower regenerative capacity.
For the regeneration protocol we referred to Radonic et al., 2015. The explant used in the sunflower regeneration assay was cotyledon.
Shoot regeneration frequency was established by calculating the average number of shoots, in the context of the present invention shoot regenerative capacity refers to the number of shoots per explant in each treatment.

“RRPRPRPPDHAREGSGGNGGVHH (Zea mays) [ZmREF1]”: the figures for the “concentration with greatest shoot regeneration frequency” value in assay [1] (B-104) and in assay [1] (Chan 7-2) were 1 nM and 0.1 nM, respectively. In assay [1] (B-104 and Chan 7-2, 0.1 or 1 nM ZmREF1 vs 0), the shoot regeneration frequency result is on record as “increased; also recorded: promotes shoot regeneration”.
“RRLTRRPPPPRGPISSGGGGQTN (listed as Helianthus annuus) [HanREF1]”: the “shoot regeneration, increase” value is on record as ~ 2.1 fold with sunflower explants (1 nM HanREF1 vs absence) and ~ 4.5 fold in the assay on sunflower explants (10 nM HanREF1 vs absence). The shoot regeneration entry in the assay on sunflower explants (1 or 10 nM vs mock) is “promotes shoot regeneration”.
